By IC50 is commonly meant the concentration that gives 50% inhibition.

Each structure is given as a SMILES string.

T1 sequence (P02829 whole entry): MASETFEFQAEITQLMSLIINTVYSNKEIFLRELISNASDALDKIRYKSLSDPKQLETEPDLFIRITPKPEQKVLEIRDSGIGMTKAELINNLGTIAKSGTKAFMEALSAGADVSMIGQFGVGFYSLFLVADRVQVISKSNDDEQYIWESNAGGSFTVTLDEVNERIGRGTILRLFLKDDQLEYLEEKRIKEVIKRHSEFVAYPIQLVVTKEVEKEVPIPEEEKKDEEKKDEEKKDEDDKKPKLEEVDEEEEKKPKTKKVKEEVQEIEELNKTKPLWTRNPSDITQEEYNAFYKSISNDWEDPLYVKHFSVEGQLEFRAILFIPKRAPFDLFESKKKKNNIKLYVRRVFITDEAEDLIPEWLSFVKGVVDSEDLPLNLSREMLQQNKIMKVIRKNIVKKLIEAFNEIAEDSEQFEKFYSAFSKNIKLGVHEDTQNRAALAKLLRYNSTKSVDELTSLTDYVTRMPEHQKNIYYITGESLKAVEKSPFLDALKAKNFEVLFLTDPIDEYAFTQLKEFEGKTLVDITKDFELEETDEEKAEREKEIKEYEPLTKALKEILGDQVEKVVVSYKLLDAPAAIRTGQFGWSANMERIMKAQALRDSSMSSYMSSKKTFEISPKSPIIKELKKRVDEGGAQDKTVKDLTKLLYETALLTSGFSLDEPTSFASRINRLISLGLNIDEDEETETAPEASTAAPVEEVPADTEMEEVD

The experiment addresses T1, yeast HSP90 (Saccharomyces cerevisiae, UniProt P02829).
T1 construct: made in house; host or cells: E. coli
Put plainly: Malachite green ATPase assay. As to conditions: activity range. Format: biochemical. From the text: The intrinsic ATPase activity of HSP90 may be measured using yeast HSP90 as a model system. The assay, based on the use of malachite green for the measurement of inorganic phosphate, was used to test the HSP90 inhibitory activity of the compounds of the Examples herein.
Malachite Green ATPase Assay
Chemicals are of the highest purity commercially available and all aqueous solutions are made up in AR water. Because of the need to minimise contamination with inorganic phosphate, precautions should be taken with solutions and apparatus used in the assays. Glassware and pH meters are rinsed with double distilled or deionised water before use and, wherever possible, plastic ware should be used. Gloves are worn for all procedures. • (1) Greiner 384-well (Greiner 781101) or Costar 384-well flat-bottomed polystyrene multiwell plates (VWR). • (2) Assay buffer of (a) 100 mM Tris-HCl, pH 7.4, (b) 150 mM KCl, (c) 6 mM MgCl2. Stored at room temperature. • (3) 0.0812% (w/v) malachite green (M 9636, Sigma Aldrich Ltd., Poole, UK). Stored at room temperature. • (4) 2.32% (w/v) polyvinyl alcohol USP (P 1097, Sigma Aldrich Ltd, Poole, UK) in boiling water (see Comment 1), allowed to cool, and stored at room temperature. • (5) 5.72% (w/v) ammonium molybdate in 6 M hydrochloric acid. Stored at room temperature. • (6) 34% (w/v) sodium citrate. Stored at room temperature. • (7) 100 mM ATP, disodium salt, special quality (47699, Sigma Aldrich). Stored at −20° C. • (8) E. coli expressed yeast HSP90 protein, purified >95% (see, e.g., Panaretou et al., 1998) and stored in 50 uL aliquots at −80° C.
Method • 1. Dilute test compounds to 500 μM in AR water (DMSO concentration will be 2.5%). Transfer 2.5 μl of these compounds directly from the daughter plate to the assay plate, giving a final assay concentration of 100 μM. To obtain 12 point IC50 values, perform serial dilutions 1:2 to produce a range of assay concentrations from 100 μM to 97.6 nM (2.5% DMSO), and transfer 2.5 μl of each concentration into the assay plate. Column 1 in the assay plate contains no compound, as a negative control. An additional row with no compound is also used as a background. • 2. Prepare ATP by diluting 100 mM stock to 925 μM with assay buffer, and aliquot 5 μl of diluted ATP to each well including controls (final assay concentration 370 μM). • 3. Add 5 μl of buffer to background row. • 4. Dilute enzyme preparation to 1.05 μM with assay buffer, and aliquot 5 μl into each compound well and to the negative control column. • 5. Collect the reagents to the bottom of the well, cover plate with plate seal and incubate overnight at 37 degC. • 6. First thing in the morning prepare the Malachite Green Reagent. Add 2 parts of Malachite Green Solution, 1 part of Polyvinyl Alcohol Solution, 1 part of Ammonium Molybdate Solution, and 2 parts of AR water. • 7. Invert to mix, and leave for approximately 1 hour until the colour turns from brown to golden yellow. • 8. Add 40 μl of Malachite Green Reagent to each well, allow 5 mins for colour to develop. • 9. Add 5 μl of Sodium Citrate Reagent to each well (see comment 2) • 10. Re-cover with plate seal and shake on plate shaker for at least 15 mins. • 11. Measure Absorbance at 620 nm using a suitable plate reader (e.g. Victor, Perkin Elmer Life Sciences, Milton Keynes, UK).
Comments • (1) The polyvinyl alcohol dissolves in boiling water with difficulty and stirring for 2-3 h is required. • (2) The time interval between addition of the malachite green reagent and the sodium citrate should be kept as short as possible in order to reduce the non-enzymatic hydrolysis of ATP. Once the sodium citrate is added, the colour is stable for up to 4 h at room temperature. • (3) Compounds can be added to the assay plates using a Biomek FX Robot (Beckman Coulter).
On to `CC(C)n1cc(N2CCNCC2)c(-c2cc(Br)c(O)cc2O)n1` [Example 61], for which the IC50 was over 50 µM.

In turn, `N#CCOc1cc(O)c(-c2n[nH]cc2N2CCN(CC#N)CC2)cc1Cl` [Example 11] came in with an IC50 of over 50 µM.

Compound `COCCN1CCN(c2c[nH]nc2-c2cc(Cl)c(O)cc2O)CC1` [Example 14] showed an IC50 of under 50 µM.

For `Oc1cc(O)c(-c2n[nH]cc2N2CCC(NCc3ccc4c(c3)OCO4)CC2)cc1Br` [Example 83], the IC50 was under 50 µM.

`COc1ccc(OC)c(CCc2cc(-c3n[nH]cc3N3CCNCC3)c(O)cc2O)c1` [Example 67] returned an IC50 of under 50 µM.

As to `COc1ccc(CCc2cc(-c3n[nH]cc3N3CCNCC3)c(O)cc2O)cc1` [Example 76], the IC50 was under 50 µM.

Turning to `Oc1cc(O)c(-c2n[nH]cc2N2CCN(Cc3ccc(-c4cnns4)cc3)CC2)cc1Cl` [Example 38], the IC50 is under 50 µM.

For the compound `COc1ccc(CNC2CCN(c3c[nH]nc3-c3cc(Br)c(O)cc3O)CC2)cc1` [Example 81], the IC50 was under 50 µM.

As for `Cn1ncc(N2CCNCC2)c1-c1cc(Br)c(O)cc1O` [Example 56], the IC50 was over 50 µM.

For `Cc1cccc(CCc2cc(-c3n[nH]cc3N3CCNCC3)c(O)cc2O)c1` [Example 71], the IC50 is under 50 µM.

In turn, `COC(=O)c1ccc(CN2CCN(c3c[nH]nc3-c3cc(Cl)c(O)cc3O)CC2)o1` [Example 15] yielded an IC50 of under 50 µM.

`Oc1cc(O)c(-c2n[nH]cc2N2CCC(NCc3ccc(Br)cc3)CC2)cc1Br` [Example 85] gave an IC50 of under 50 µM.

In the case of `Oc1cc(O)c(-c2n[nH]cc2N2CCN(Cc3ccccn3)CC2)cc1Cl` [Example 31], the IC50 was under 50 µM.

`Oc1cc(O)c(-c2n[nH]cc2N2CCN(Cc3ccc(-n4cccn4)cc3)CC2)cc1Cl` [Example 39] registered an IC50 of under 50 µM.

The compound `O=C(O)c1ccc(CN2CCN(c3c[nH]nc3-c3cc(Cl)c(O)cc3O)CC2)o1` [Example 28] gave an IC50 of under 50 µM.

With `COC(=O)c1ccc(C(=O)N2CCN(c3c[nH]nc3-c3cc(Cl)c(O)cc3O)CC2)cc1` [Example 32], the IC50 is over 50 µM.

`Oc1cc(O)c(-c2n[nH]cc2N2CCNCC2)cc1CCc1ccc(F)cc1` [Example 70] yielded an IC50 of under 50 µM.

The compound `CCNC(=O)c1[nH]nc(-c2cc(Cl)c(O)cc2O)c1N1CCNCC1` [Example 51, 5-(5-Chloro-2,4-dihydroxy-phenyl)-4-piperazin-1-yl-2H-pyrazole-3-carboxylic acid ethylamide] yielded an IC50 of under 50 µM.

The record behind these values is patent publication US7612201B2, “Pyrazole compounds” (Vernalis (Cambridge) Limited, priority 2002, dated 2009).
